Assay results from patent US20250375465A1, “METHODS FOR AFFECTING TISSUE-RESIDENT T CELLS” (THE TRUSTEES OF THE UNIVERSITY OF PENNSYLVANIA, priority 2024, published 2025).
“Also recorded” adds a separate entry of the source.

Experiments:
primary human T cells = experiment: Kill curve in primary human (circulating) T cells, celltiter glow viability assay (FIG. 6C); format: cell-based; details: for apoptosis / killing of primary human T cells: FIG. 6C, 3 days incubation
Procedure: (Data extracted from J Clin Invest. 2022; 132 (16): e153514). FIG. 6C: in contrast to the AML cells, circulating T cells required about 100-fold higher dose of the GSPT-1 degrader to be depleted. The GSPT-1 degrader used in FIG. 6C is C90009, the same drug as in FIGS. 6A-6B. Blue curve: kill curve with MRT-2359. Primary human T cells were incubated with indicated doses for 3 days followed by viability quantification using a standard celltiter glow assay. Survival was quantified relative to T cells from the same donor treated with DMSO.

GSPT1 = biological target: T1, GSPT1 (Homo sapiens, UniProt P15170+Q96SW2); experiment: Western blot of GSPT1 protein in primary human T cells after degrader treatment (FIGS. 13A-13B); format: cell-based; details: primary human peripheral blood T cells, 24 hours in vitro, compared to DMSO control
T1 construct: GSPT1 protein in primary human T cells isolated from peripheral blood; endogenous in cells; host or cells: primary human T cells from peripheral blood of normal donors
T1 sequence (P15170 whole entry): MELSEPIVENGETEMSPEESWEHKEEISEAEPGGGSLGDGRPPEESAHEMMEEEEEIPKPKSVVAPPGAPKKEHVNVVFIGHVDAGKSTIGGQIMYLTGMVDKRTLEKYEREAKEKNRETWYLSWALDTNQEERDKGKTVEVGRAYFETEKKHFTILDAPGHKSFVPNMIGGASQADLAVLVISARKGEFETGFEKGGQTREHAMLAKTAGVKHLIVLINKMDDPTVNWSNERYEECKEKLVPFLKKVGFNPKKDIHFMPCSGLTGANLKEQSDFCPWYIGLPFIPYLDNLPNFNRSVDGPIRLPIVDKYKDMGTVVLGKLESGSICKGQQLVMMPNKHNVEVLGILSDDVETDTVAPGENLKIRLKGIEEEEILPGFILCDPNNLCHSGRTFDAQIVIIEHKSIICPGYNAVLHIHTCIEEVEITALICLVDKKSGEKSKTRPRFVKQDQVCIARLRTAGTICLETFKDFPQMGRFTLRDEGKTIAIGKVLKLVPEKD
T1 sequence (Q96SW2 whole entry): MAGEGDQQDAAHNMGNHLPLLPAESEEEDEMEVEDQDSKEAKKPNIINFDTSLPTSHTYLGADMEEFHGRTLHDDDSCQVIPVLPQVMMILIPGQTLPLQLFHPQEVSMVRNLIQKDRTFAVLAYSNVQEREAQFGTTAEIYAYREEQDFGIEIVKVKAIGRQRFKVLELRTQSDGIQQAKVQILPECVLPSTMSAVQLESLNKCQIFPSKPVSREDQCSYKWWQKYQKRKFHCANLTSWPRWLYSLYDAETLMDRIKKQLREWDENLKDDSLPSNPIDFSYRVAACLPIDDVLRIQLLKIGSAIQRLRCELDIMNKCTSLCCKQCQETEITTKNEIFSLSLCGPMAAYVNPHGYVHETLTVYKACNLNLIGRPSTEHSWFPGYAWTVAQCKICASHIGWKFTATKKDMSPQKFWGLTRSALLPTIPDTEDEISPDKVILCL
T1 sequence (Q16531 whole entry partner): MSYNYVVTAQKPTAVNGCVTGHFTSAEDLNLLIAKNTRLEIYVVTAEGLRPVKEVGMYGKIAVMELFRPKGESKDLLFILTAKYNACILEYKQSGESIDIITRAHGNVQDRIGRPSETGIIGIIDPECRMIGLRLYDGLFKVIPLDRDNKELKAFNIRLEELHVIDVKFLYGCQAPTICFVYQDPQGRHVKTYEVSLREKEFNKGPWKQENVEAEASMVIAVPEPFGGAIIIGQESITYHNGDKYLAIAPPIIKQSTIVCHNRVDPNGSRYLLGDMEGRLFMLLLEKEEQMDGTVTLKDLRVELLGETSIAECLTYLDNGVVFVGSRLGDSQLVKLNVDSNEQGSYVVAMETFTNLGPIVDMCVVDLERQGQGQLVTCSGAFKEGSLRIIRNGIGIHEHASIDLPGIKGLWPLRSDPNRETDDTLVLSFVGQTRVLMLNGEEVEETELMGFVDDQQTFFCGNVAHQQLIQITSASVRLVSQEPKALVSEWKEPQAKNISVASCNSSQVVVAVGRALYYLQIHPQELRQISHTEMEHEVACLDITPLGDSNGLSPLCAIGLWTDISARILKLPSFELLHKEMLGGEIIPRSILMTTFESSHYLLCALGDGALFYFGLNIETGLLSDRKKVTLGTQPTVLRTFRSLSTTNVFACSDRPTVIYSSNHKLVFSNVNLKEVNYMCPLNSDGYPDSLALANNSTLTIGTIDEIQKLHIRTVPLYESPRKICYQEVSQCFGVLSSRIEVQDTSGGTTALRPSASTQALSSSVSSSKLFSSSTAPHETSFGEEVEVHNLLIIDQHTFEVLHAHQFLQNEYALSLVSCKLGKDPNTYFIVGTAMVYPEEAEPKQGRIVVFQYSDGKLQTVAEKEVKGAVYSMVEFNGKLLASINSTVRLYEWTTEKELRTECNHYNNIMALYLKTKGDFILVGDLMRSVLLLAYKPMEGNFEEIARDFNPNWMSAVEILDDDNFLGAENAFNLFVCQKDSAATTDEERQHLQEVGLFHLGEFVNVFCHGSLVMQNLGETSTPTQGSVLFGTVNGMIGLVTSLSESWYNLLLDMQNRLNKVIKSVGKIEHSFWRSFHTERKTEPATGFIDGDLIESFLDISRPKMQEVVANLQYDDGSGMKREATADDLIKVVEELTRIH
Procedure: FIGS. 13A-13B illustrate degradation of GSPT1 in primary human T cells using CC-90009 and MRT-2359. FIG. 13A is a Western blot analysis of GSPT1 protein in primary human T cells isolated from peripheral blood. T cells were treated with indicated concentrations of GSPT1 degrader for 24 hours in vitro. GSPT1 protein was detected with a monoclonal anti-GSPT1 antibody. FIG. 13B is a graph quantifying GSPT1 protein remaining after degrader treatment as shown in FIG. 13A compared to a DMSO negative control.
(§1) Given that GSPT1-degrading small-molecules are already advancing through early-phase trials for cancer, it was tested whether targeting GSPT1 could selectively affect TRM in vitro. TRM were isolated from healthy human skin (n=6) and their sensitivity was to the GSPT1-degrading drug CC-90009 with that of human blood T cells. […] In a similar study, another small molecule GSPT1 degrader, MRT-2359, was used to treat peripheral blood T cells from normal human donors for 24 hours in vitro at various concentrations.

[1] = system: TRM isolated from healthy human skin; experiment: Viability of skin TRM versus blood T cells after GSPT1 degrader treatment (FIG. 10D); format: cell-based; details: 72 hours of treatment, n=6
Procedure: as §1

[2] = system: acute myeloid leukemia (AML) cells; details: FIG. 6A; data extracted from J Clin Invest. 2022; 132 (16): e153514; cited from earlier work
primary leukemia cells = details: FIG. 6B; data extracted from J Clin Invest. 2022; 132 (16): e153514; cited from earlier work

Row | Structure (SMILES) | apoptosis / killing of primary human T cells (primary human T cells) | GSPT1 protein remaining after degrader treatment (GSPT1) | dosage required for same level of apoptosis in primary (circulating) T cells versus cells of FIGS. 6A-6B (primary human T cells; FIG. 6C versus FIGS. 6A-6B) | dose required to deplete circulating T cells relative to AML cells (primary human T cells; primary human T cells incubated 3 days, survival relative to DMSO, compared with FIGS. 6A-6B) | viability of skin TRM compared with circulating T cells [1] | depletion / apoptosis of AML cells [2] | depletion / apoptosis of primary leukemia cells (primary leukemia cells)
1 | O=C1CCC(N2Cc3ccc(COC(=O)Nc4cc(OC(F)(F)F)ccc4F)cc3C2=O)C(=O)N1 (stereo not drawn) [MRT-2359] | does apoptosis | significant dose-dependent loss of GSPT1 protein; also recorded: dose-dependent downregulation of GSPT1 protein |  |  |  |  | 
2 | O=C1CCC(N2Cc3cc(CNC(=O)C(F)(F)c4ccc(Cl)cc4)ccc3C2=O)C(=O)N1 (stereo not drawn) [CC-90009] | does apoptosis | significant dose-dependent loss of GSPT1 protein; also recorded: dose-dependent downregulation of GSPT1 protein | dramatically increased | about 100 fold | reduced viability | dose-dependent apoptosis; also recorded: dose-dependent depletion | dose-dependent apoptosis; also recorded: dose-dependent depletion
